PMC5218480 (PLoS ONE, 2017)

System: MV-4-11 cells
Assay: Gene expression microarray analysis (Affymetrix PrimeView) and GSEA
Type: cell-based, human
Set-up: RFU PODN (11730768_x_at) / Fold change /veh PODN (11730768_x_at) / RFU LINC00158 (11744669_a_at) / Fold change /veh LINC00158 (11744669_a_at) / RFU DUSP10 (11751237_a_at) / Fold change /veh DUSP10 (11751237_a_at) / RFU ID3 (11757404_x_at) / Fold change /veh ID3 (11757404_x_at) / RFU PLEKHG5 (11737974_s_at) / Fold change /veh PLEKHG5 (11737974_s_at) / RFU LRRC4B (11730491_at) / Fold change /veh LRRC4B (11730491_at) / RFU GIMAP4 (11747438_a_at) / Fold change /veh GIMAP4 (11747438_a_at) / RFU KRT8 (11758183_x_at) / Fold change /veh KRT8 (11758183_x_at) / RFU CNN1 (11734310_a_at) / Fold change /veh CNN1 (11734310_a_at) / RFU VPS37D (11726825_at) / Fold change /veh VPS37D (11726825_at) / RFU C10orf10 (11716522_x_at) / Fold change /veh C10orf10 (11716522_x_at) / RFU KIR2DL2 /// KIR2DL4 /// KIR2DL5A /// KIR2DL5B /// KIR2DS1 /// KIR2DS2 /// KIR2DS3 /// KIR2DS4 /// KIR3DL3 /// KIR3DL3 /// KIR3DS1 (11738374_at) / Fold change /veh KIR2DL2 /// KIR2DL4 /// KIR2DL5A /// KIR2DL5B /// KIR2DS1 /// KIR2DS2 /// KIR2DS3 /// KIR2DS4 /// KIR3DL3 /// KIR3DL3 /// KIR3DS1 (11738374_at) / RFU C1QL1 (11718748_at) / Fold change /veh C1QL1 (11718748_at) / RFU TMPRSS4 (11747572_a_at) / Fold change /veh TMPRSS4 (11747572_a_at) / RFU HAMP (11756126_x_at) / Fold change /veh HAMP (11756126_x_at) / RFU RNFT2 (11725882_a_at) / Fold change /veh RNFT2 (11725882_a_at) / RFU NR4A2 (11747474_a_at) / Fold change /veh NR4A2 (11747474_a_at) / RFU ABCC12 (11746883_a_at) / Fold change /veh ABCC12 (11746883_a_at) / RFU TMEM136 (11760407_x_at) / Fold change /veh TMEM136 (11760407_x_at) / RFU CLDN22 /// WWC2 (11732394_at) / Fold change /veh CLDN22 /// WWC2 (11732394_at) / RFU HLA-DPB1 (11760878_x_at) / Fold change /veh HLA-DPB1 (11760878_x_at) / RFU SPINT1 (11716480_a_at) / Fold change /veh SPINT1 (11716480_a_at) / RFU GAP43 (11754022_s_at) / Fold change /veh GAP43 (11754022_s_at) / RFU A4GNT (11735810_at) / Fold change /veh A4GNT (11735810_at) / RFU PRB3 (11715151_x_at) / Fold change /veh PRB3 (11715151_x_at) / RFU TUBB4B (11761932_at) / Fold change /veh TUBB4B (11761932_at) / RFU CAPN14 (11732068_a_at) / Fold change /veh CAPN14 (11732068_a_at) / RFU TMCC2 (11721928_a_at) / Fold change /veh TMCC2 (11721928_a_at) / RFU IRGQ (11745062_a_at) / Fold change /veh IRGQ (11745062_a_at) / RFU FAM174B (11720279_a_at) / Fold change /veh FAM174B (11720279_a_at) / RFU TMPRSS4 (11748680_a_at) / Fold change /veh TMPRSS4 (11748680_a_at) / RFU FAM212B (11763350_a_at) / Fold change /veh FAM212B (11763350_a_at) / RFU PLEKHG5 (11743358_a_at) / Fold change /veh PLEKHG5 (11743358_a_at) / RFU ZSCAN30 (11745921_a_at) / Fold change /veh ZSCAN30 (11745921_a_at) / RFU CMKLR1 (11741424_a_at) / Fold change /veh CMKLR1 (11741424_a_at) / RFU LOC101060620 /// MAPK8IP1 (11723275_at) / Fold change /veh LOC101060620 /// MAPK8IP1 (11723275_at) / RFU SPTSSB (11747773_x_at) / Fold change /veh SPTSSB (11747773_x_at) / RFU PRSS12 (11739890_at) / Fold change /veh PRSS12 (11739890_at) / RFU BIN1 (11741810_x_at) / Fold change /veh BIN1 (11741810_x_at) / RFU WNT11 (11732464_a_at) / Fold change /veh WNT11 (11732464_a_at) / RFU C10orf10 (11716521_a_at) / Fold change /veh C10orf10 (11716521_a_at) / RFU C5orf56 (11738089_at) / Fold change /veh C5orf56 (11738089_at) / RFU CYB561 (11721691_x_at) / Fold change /veh CYB561 (11721691_x_at) / RFU ANKRD19P (11752326_a_at) / Fold change /veh ANKRD19P (11752326_a_at) / RFU OR2T12 /// OR2T33 /// OR2T8 (11738714_s_at) / Fold change /veh OR2T12 /// OR2T33 /// OR2T8 (11738714_s_at) / RFU VCAN (11748164_a_at) / Fold change /veh VCAN (11748164_a_at) / RFU JSRP1 (11732532_at) / Fold change /veh JSRP1 (11732532_at) / RFU KRTAP10-11 (11738290_x_at) / Fold change /veh KRTAP10-11 (11738290_x_at) / RFU MYO3A (11730013_a_at) / Fold change /veh MYO3A (11730013_a_at) / RFU EBF3 (11725865_a_at) / Fold change /veh EBF3 (11725865_a_at) / RFU CAMK2N1 (11719241_x_at) / Fold change /veh CAMK2N1 (11719241_x_at) / RFU C5orf56 (11738088_a_at) / Fold change /veh C5orf56 (11738088_a_at) / RFU OLFML3 (11715873_a_at) / Fold change /veh OLFML3 (11715873_a_at) / RFU LOC100653217 /// NTM (11731650_a_at) / Fold change /veh LOC100653217 /// NTM (11731650_a_at) / RFU MAPK11 (11762145_a_at) / Fold change /veh MAPK11 (11762145_a_at) / RFU FIZ1 (11724087_x_at) / Fold change /veh FIZ1 (11724087_x_at) / RFU OASL (11726364_x_at) / Fold change /veh OASL (11726364_x_at) / RFU SOX15 (11748057_x_at) / Fold change /veh SOX15 (11748057_x_at) / RFU CD79A (11719716_a_at) / Fold change /veh CD79A (11719716_a_at) / RFU HIST1H1D (11736915_at) / Fold change /veh HIST1H1D (11736915_at) / RFU CASKIN2 (11723855_a_at) / Fold change /veh CASKIN2 (11723855_a_at) / RFU LOC730098 (11760151_x_at) / Fold change /veh LOC730098 (11760151_x_at) / RFU OR4N2 (11742367_at) / Fold change /veh OR4N2 (11742367_at) / RFU PRRT2 (11749266_a_at) / Fold change /veh PRRT2 (11749266_a_at) / RFU SNX32 (11753110_a_at) / Fold change /veh SNX32 (11753110_a_at) / RFU CDHR5 (11726645_a_at) / Fold change /veh CDHR5 (11726645_a_at) / RFU RCAN1 (11760418_a_at) / Fold change /veh RCAN1 (11760418_a_at) / RFU FAM167A (11723789_a_at) / Fold change /veh FAM167A (11723789_a_at) / RFU FAM26E (11764081_at) / Fold change /veh FAM26E (11764081_at) / RFU ISYNA1 (11749810_s_at) / Fold change /veh ISYNA1 (11749810_s_at) / RFU ACY1 (11761880_at) / Fold change /veh ACY1 (11761880_at) / RFU 11764098_at / Fold change /veh 11764098_at / RFU SAMD14 (11745864_x_at) / Fold change /veh SAMD14 (11745864_x_at) / RFU NPB (11741838_a_at) / Fold change /veh NPB (11741838_a_at) / RFU TMPRSS6 (11731388_a_at) / Fold change /veh TMPRSS6 (11731388_a_at) / RFU KRTAP10-2 (11738614_at) / Fold change /veh KRTAP10-2 (11738614_at) / RFU ARHGAP8 /// PRR5-ARHGAP8 (11727945_x_at) / Fold change /veh ARHGAP8 /// PRR5-ARHGAP8 (11727945_x_at) / RFU KRTAP5-7 /// NADSYN1 (11734609_at) / Fold change /veh KRTAP5-7 /// NADSYN1 (11734609_at) / RFU RASL12 (11751679_a_at) / Fold change /veh RASL12 (11751679_a_at) / RFU CDKN2B (11736163_a_at) / Fold change /veh CDKN2B (11736163_a_at) / RFU PRF1 (11729649_at) / Fold change /veh PRF1 (11729649_at) / RFU, ZNF638 /// ZNF638-IT1 / Fold change vs veh, ZNF638 /// ZNF638-IT1 / RFU, PANK3 / Fold change vs veh, PANK3 / RFU, SH3YL1 / Fold change vs veh, SH3YL1 / RFU, ZEB2 / Fold change vs veh, ZEB2 / RFU, NRIP1 / Fold change vs veh, NRIP1 / RFU, PTTG1IP / Fold change vs veh, PTTG1IP / RFU, CAPN2 / Fold change vs veh, CAPN2 / RFU, MED14 / Fold change vs veh, MED14 / RFU, SNORA58 / Fold change vs veh, SNORA58 / RFU, C1orf63 / Fold change vs veh, C1orf63 / RFU, LRRFIP1 / Fold change vs veh, LRRFIP1 / RFU, NDUFAF7 / Fold change vs veh, NDUFAF7 / RFU, SLC12A2 / Fold change vs veh, SLC12A2 / RFU, IBTK / Fold change vs veh, IBTK / RFU, ESF1 / Fold change vs veh, ESF1 / Fold change vs veh, TMEM50B / RFU, TAOK1 / Fold change vs veh, TAOK1 / RFU, ACBD3 / Fold change vs veh, ACBD3 / RFU, TMA16 / Fold change vs veh, TMA16 / RFU, RWDD3 / Fold change vs veh, RWDD3 / RFU, BCAT1 / Fold change vs veh, BCAT1 / RFU, EDEM3 / Fold change vs veh, EDEM3 / RFU, TMEM33 / Fold change vs veh, TMEM33 / RFU, WDR75 / Fold change vs veh, WDR75 / RFU, AHCTF1 / Fold change vs veh, AHCTF1 / RFU, TFRC / Fold change vs veh, TFRC / RFU, ZDHHC17 / Fold change vs veh, ZDHHC17 / RFU, NOM1 / Fold change vs veh, NOM1 / RFU, ARL8B / Fold change vs veh, ARL8B / RFU, ZBTB11 / Fold change vs veh, ZBTB11 / RFU, TAMM41 / Fold change vs veh, TAMM41 / RFU, KIAA1704 /// LOC100996395 / Fold change vs veh, KIAA1704 /// LOC100996395 / RFU, ING1 / Fold change vs veh, ING1 / RFU, TRMT61B / Fold change vs veh, TRMT61B / RFU, FUBP3 / Fold change vs veh, FUBP3 / RFU, TP53 / Fold change vs veh, TP53 / RFU, TNKS2 / Fold change vs veh, TNKS2 / RFU, ZFP14 / Fold change vs veh, ZFP14 / RFU, ACTR2 / Fold change vs veh, ACTR2 / RFU, PPP3R1 / Fold change vs veh, PPP3R1 / RFU, PIK3R1 / Fold change vs veh, PIK3R1 / RFU, HNRNPA1 / Fold change vs veh, HNRNPA1 / RFU, RNF170 / Fold change vs veh, RNF170 / RFU, ZNF28 / Fold change vs veh, ZNF28 / RFU, RNGTT / Fold change vs veh, RNGTT / RFU, OGT / Fold change vs veh, OGT / RFU, BRD1 / Fold change vs veh, BRD1 / RFU, MARS / Fold change vs veh, MARS / RFU, ZNF655 / Fold change vs veh, ZNF655 / RFU, FAHD1 / Fold change vs veh, FAHD1 / RFU, BDP1 / Fold change vs veh, BDP1 / RFU, LRRCC1 / Fold change vs veh, LRRCC1 / RFU, ARID1A / Fold change vs veh, ARID1A / RFU, ZNF146 / Fold change vs veh, ZNF146 / RFU, ZNF330 / Fold change vs veh, ZNF330 / RFU, GPN3 / Fold change vs veh, GPN3 / RFU, C9orf123 / Fold change vs veh, C9orf123 / RFU, N4BP2L2 / Fold change vs veh, N4BP2L2 / RFU, ARFIP1 / Fold change vs veh, ARFIP1 / RFU, FAM179B / Fold change vs veh, FAM179B / RFU, BCL10 / Fold change vs veh, BCL10 / RFU, UHRF1BP1L / Fold change vs veh, UHRF1BP1L / RFU, BET1 / Fold change vs veh, BET1 / RFU, CNOT2 / Fold change vs veh, CNOT2 / RFU, ZNF268 / Fold change vs veh, ZNF268 / Fold change vs veh, ZNF507 / RFU, DGCR2 / Fold change vs veh, DGCR2 / RFU, WDSUB1 / Fold change vs veh, WDSUB1 / Fold change vs veh, HSP90B1 /// MIR3652 / RFU, ADSS / Fold change vs veh, ADSS / RFU, GK / Fold change vs veh, GK / RFU, ZNF148 / Fold change vs veh, ZNF148 / RFU, TAF9 / Fold change vs veh, TAF9 / RFU, SLC1A5 / Fold change vs veh, SLC1A5 / RFU, SLMO2 / Fold change vs veh, SLMO2 / RFU, ABCC4 / Fold change vs veh, ABCC4 / RFU, LOC101060439 /// RAP1B / Fold change vs veh, LOC101060439 /// RAP1B / RFU, RFX7 / Fold change vs veh, RFX7 / RFU, GTPBP10 / Fold change vs veh, GTPBP10 / RFU, CNEP1R1 / Fold change vs veh, CNEP1R1 / RFU, BIVM-ERCC5 /// ERCC5 / Fold change vs veh, BIVM-ERCC5 /// ERCC5 / RFU, ILF3 / Fold change vs veh, ILF3 / RFU 11762660_at / Fold change /veh 11762660_at / RFU VCAN (11757783_s_at) / Fold change /veh VCAN (11757783_s_at) / RFU DDX43 (11728927_at) / Fold change /veh DDX43 (11728927_at) / RFU KRT8 (11758188_x_at) / Fold change /veh KRT8 (11758188_x_at) / RFU NKD1 (11759106_at) / Fold change /veh NKD1 (11759106_at) / RFU SRD5A1 (11742802_a_at) / Fold change /veh SRD5A1 (11742802_a_at) / RFU TPSAB1 /// TPSB2 (11721975_s_at) / Fold change /veh TPSAB1 /// TPSB2 (11721975_s_at) / RFU GSTM3 (11746129_a_at) / Fold change /veh GSTM3 (11746129_a_at) / RFU IL23R (11737362_x_at) / Fold change /veh IL23R (11737362_x_at) / RFU TMEM51 (11727254_a_at) / Fold change /veh TMEM51 (11727254_a_at) / RFU PIWIL2 (11732686_x_at) / Fold change /veh PIWIL2 (11732686_x_at) / RFU ORM1 (11744905_x_at) / Fold change /veh ORM1 (11744905_x_at) / RFU CCDC152 (11743942_at) / Fold change /veh CCDC152 (11743942_at) / RFU ECM1 (11717891_a_at) / Fold change /veh ECM1 (11717891_a_at) / RFU IL23R (11748794_a_at) / Fold change /veh IL23R (11748794_a_at) / RFU TNFAIP8L3 (11732012_x_at) / Fold change /veh TNFAIP8L3 (11732012_x_at) / RFU MBOAT4 (11741988_at) / Fold change /veh MBOAT4 (11741988_at) / RFU 11764193_at / Fold change /veh 11764193_at / RFU TMEM53 (11763286_at) / Fold change /veh TMEM53 (11763286_at) / RFU MAGEB2 (11727129_at) / Fold change /veh MAGEB2 (11727129_at) / RFU TMEM200A (11744735_a_at) / Fold change /veh TMEM200A (11744735_a_at) / RFU CCDC152 (11751479_a_at) / Fold change /veh CCDC152 (11751479_a_at) / RFU FAM211A (11726209_a_at) / Fold change /veh FAM211A (11726209_a_at) / RFU RGS16 (11746705_a_at) / Fold change /veh RGS16 (11746705_a_at) / RFU VCAN (11755009_s_at) / Fold change /veh VCAN (11755009_s_at) / RFU RHOB (11743442_s_at) / Fold change /veh RHOB (11743442_s_at) / RFU RGS16 (11720943_a_at) / Fold change /veh RGS16 (11720943_a_at) / RFU RGS16 (11720944_at) / Fold change /veh RGS16 (11720944_at) / RFU, VPS4B / Fold change vs veh, VPS4B / RFU, CREB1 / Fold change vs veh, CREB1 / RFU, DNAJC13 / Fold change vs veh, DNAJC13 / RFU, GNAQ / Fold change vs veh, GNAQ / RFU, CDK5R1 / Fold change vs veh, CDK5R1 / RFU, ZRANB3 / Fold change vs veh, ZRANB3 / RFU, CUL4A / Fold change vs veh, CUL4A / RFU, CCNY / Fold change vs veh, CCNY / RFU, UFL1 / Fold change vs veh, UFL1 / RFU, COG3 / Fold change vs veh, COG3 / RFU, DIAPH2 / Fold change vs veh, DIAPH2 / RFU, SKA2 / Fold change vs veh, SKA2 / RFU, AFF3 / Fold change vs veh, AFF3 / RFU, LMF1 / Fold change vs veh, LMF1 / RFU, IPO11 / Fold change vs veh, IPO11 / RFU, DFFB / Fold change vs veh, DFFB / RFU, FOXP1 / Fold change vs veh, FOXP1 / RFU, CARD8 / Fold change vs veh, CARD8 / RFU, STRN3 / Fold change vs veh, STRN3 / RFU, ADK / Fold change vs veh, ADK / RFU, RASSF2 / Fold change vs veh, RASSF2 / RFU, WIPF1 / Fold change vs veh, WIPF1 / RFU, LARP1B / Fold change vs veh, LARP1B / RFU, RASA1 / Fold change vs veh, RASA1 / RFU, RB1 / Fold change vs veh, RB1 / RFU, PPFIA1 / Fold change vs veh, PPFIA1 / RFU, MAT2A / Fold change vs veh, MAT2A / RFU, CCT5 / Fold change vs veh, CCT5 / RFU, WDR92 / Fold change vs veh, WDR92 / RFU, CUX1 / Fold change vs veh, CUX1 / RFU, TTC7A / Fold change vs veh, TTC7A / RFU, TMEM135 / Fold change vs veh, TMEM135 / RFU, DEPTOR / Fold change vs veh, DEPTOR / RFU, CPM / Fold change vs veh, CPM / RFU, DNAJB6 / Fold change vs veh, DNAJB6 / RFU, CACNA2D3 / Fold change vs veh, CACNA2D3 / RFU, DTX4 / Fold change vs veh, DTX4 / RFU, TFCP2 / Fold change vs veh, TFCP2 / RFU, GMCL1 /// GMCL1P1 / Fold change vs veh, GMCL1 /// GMCL1P1 / RFU, AEBP2 / Fold change vs veh, AEBP2 / RFU, SNHG1 /// SNORD22 /// SNORD25 /// SNORD26 /// SNORD27 /// SNORD28 /// SNORD29 /// SNORD31 / Fold change vs veh, SNHG1 /// SNORD22 /// SNORD25 /// SNORD26 /// SNORD27 /// SNORD28 /// SNORD29 /// SNORD31 / Fold change (Aza/veh), C12orf56 (ProbeSet 11735607_a_at) / Fold change (ACY-1035/veh), C12orf56 (ProbeSet 11735607_a_at) / Fold change (Aza/veh), FGFR1OP (ProbeSet 11751329_s_at) / Fold change (ACY-1035/veh), FGFR1OP (ProbeSet 11751329_s_at) / Fold change (Aza/veh), VPS36 (ProbeSet 11739960_a_at) / Fold change (ACY-1035/veh), VPS36 (ProbeSet 11739960_a_at) / RFU SYPL1 (11715823_x_at) / Fold change /veh SYPL1 (11715823_x_at) / RFU IGFBP7 (11715501_s_at) / Fold change /veh IGFBP7 (11715501_s_at) / RFU REEP3 (11722064_at) / Fold change /veh REEP3 (11722064_at) / RFU IGLL1 (11728026_x_at) / Fold change /veh IGLL1 (11728026_x_at): dose or concentration left out as unconfirmed
Details: MV-4-11 cells, 48 hours

Compound: Nc1ncn([C@@H]2O[C@H](CO)[C@@H](O)[C@H]2O)c(=O)n1 [azacitidine]
- Fold change /veh CCDC152 (11743942_at): 1.57
